The text below walks through data of ChEMBL document CHEMBL2021828, “An approach for differentiating isozymes. Construction of libraries containing short aromatic peptides as part of a method to design selective inhibitors against lipases” (Bioorg Med Chem Lett, 2012).

Calls of active or inactive are those of the source. The rule behind the calls is not given here. Some results are limits rather than exact numbers.

The nature of data set [1]: Discrimination ratio of Ki for human pancreatic lipase to Ki for Chromobacterium viscosum lipase.
The subject of data set [2] is Chromobacterium viscosum. The data set is described as follows: Activity of Chromobacterium viscosum lipase using p-nitrophenylbutyrate as substrate by Lineweaver-Burk plot analysis relative to control.
A short description of data set [3]: Discrimination ratio of Ki for Thermomyces lanuginosus lipase to Ki for Chromobacterium viscosum lipase.
Data set [4] is described as follows: Discrimination ratio of Ki for porcine pancreatic lipase to Ki for Chromobacterium viscosum lipase.
The nature of data set [5]: Inhibition of Chromobacterium viscosum lipase using p-nitrophenylbutyrate as substrate by Dixon plot analysis.
Data set [6] has as its target T1, Pancreatic triacylglycerol lipase (Sus scrofa) (UniProt P00591).
T1 sequence (whole entry): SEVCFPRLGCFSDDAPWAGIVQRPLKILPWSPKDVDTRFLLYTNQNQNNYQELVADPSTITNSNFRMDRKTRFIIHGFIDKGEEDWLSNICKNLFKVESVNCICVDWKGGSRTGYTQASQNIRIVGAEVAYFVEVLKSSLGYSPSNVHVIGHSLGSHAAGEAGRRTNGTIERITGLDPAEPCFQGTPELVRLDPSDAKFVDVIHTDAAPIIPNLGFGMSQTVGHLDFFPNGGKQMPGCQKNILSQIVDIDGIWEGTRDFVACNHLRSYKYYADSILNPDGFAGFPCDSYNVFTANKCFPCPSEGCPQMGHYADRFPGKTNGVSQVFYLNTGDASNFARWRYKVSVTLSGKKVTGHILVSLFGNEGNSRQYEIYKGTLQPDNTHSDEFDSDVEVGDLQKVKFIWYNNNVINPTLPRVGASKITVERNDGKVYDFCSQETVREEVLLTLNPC
As to the kind of experiment: (§1) Inhibition of porcine pancreatic lipase using p-nitrophenylbutyrate as substrate by Dixon plot analysis.

The target of data set [7] is T2, Pancreatic triacylglycerol lipase (Homo sapiens) (UniProt P16233).
T2 sequence (whole entry): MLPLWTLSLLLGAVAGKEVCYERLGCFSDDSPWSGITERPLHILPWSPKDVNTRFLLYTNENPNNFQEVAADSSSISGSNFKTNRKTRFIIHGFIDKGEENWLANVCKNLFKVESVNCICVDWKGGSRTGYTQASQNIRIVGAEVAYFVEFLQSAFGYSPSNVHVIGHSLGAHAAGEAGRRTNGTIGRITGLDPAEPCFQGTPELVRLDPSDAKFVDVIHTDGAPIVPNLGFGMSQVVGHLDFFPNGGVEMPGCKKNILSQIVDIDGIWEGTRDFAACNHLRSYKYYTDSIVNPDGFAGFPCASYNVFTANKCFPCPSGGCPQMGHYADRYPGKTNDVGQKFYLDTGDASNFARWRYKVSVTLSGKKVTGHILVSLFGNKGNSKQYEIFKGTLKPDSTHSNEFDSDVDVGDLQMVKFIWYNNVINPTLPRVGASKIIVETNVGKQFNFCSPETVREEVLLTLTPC
As to the kind of experiment: (§2) Inhibition of human pancreatic lipase using p-nitrophenylbutyrate as substrate by Dixon plot analysis.

Data set [8] relates to Chromobacterium viscosum. The data set is described as follows: Activity of Chromobacterium viscosum lipase using p-nitrophenylbutyrate as substrate by Lineweaver-Burk plot analysis.
Data set [9] addresses T1, Pancreatic triacylglycerol lipase (Sus scrofa). As to the kind of experiment: Activity of porcine pancreatic lipase using p-nitrophenylbutyrate as substrate by Lineweaver-Burk plot analysis.
The target of data set [10] is T2, Pancreatic triacylglycerol lipase (Homo sapiens). The data set is described as follows: Activity of human pancreatic lipase using p-nitrophenylbutyrate as substrate by Lineweaver-Burk plot analysis.
The target of data set [11] is T3, Lipase (Thermomyces lanuginosus) (UniProt O59952).
T3 sequence (whole entry): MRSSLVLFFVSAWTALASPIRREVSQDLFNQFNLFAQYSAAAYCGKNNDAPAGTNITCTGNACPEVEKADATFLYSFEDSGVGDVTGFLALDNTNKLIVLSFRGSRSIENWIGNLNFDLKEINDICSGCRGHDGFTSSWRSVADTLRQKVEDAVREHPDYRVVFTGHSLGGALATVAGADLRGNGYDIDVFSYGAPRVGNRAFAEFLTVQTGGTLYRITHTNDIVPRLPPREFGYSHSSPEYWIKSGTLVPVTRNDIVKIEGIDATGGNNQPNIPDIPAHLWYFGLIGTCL
The data set is described as follows: Activity of Thermomyces lanuginosus lipase using p-nitrophenylbutyrate as substrate by Lineweaver-Burk plot analysis.

Data set [12] is described as follows: Solubility of the compound in buffer. Type of data set: physicochemical.
Data set [13] concerns the target T3, Lipase (Thermomyces lanuginosus). The data set is described as follows: Inhibition of Thermomyces lanuginosus lipase using p-nitrophenylbutyrate as substrate by Dixon pot analysis.
Data set [14] has as its target T4, Pancreatic triacylglycerol lipase (Sus scrofa, UniProt P00591).
T4 sequence (P00591 whole entry): T1 sequence (whole entry)
The data set is described as §1.

In data set [15] the target is T5, Pancreatic triacylglycerol lipase (Homo sapiens, UniProt P16233).
T5 sequence (P16233 whole entry): T2 sequence (whole entry)
The description is as §2.

As a reminder, the Ki is the equilibrium dissociation constant of an inhibitor or competing ligand from its target. Low values mean a stronger hold on the target, high ones a looser hold on the target. For `CCCCOc1ccc(NC(=O)CCC(=O)N[C@@H](Cc2ccccc2)C(=O)N[C@@H](Cc2ccccc2)C(N)=O)cc1`, the Ratio Ki in data set [1] was determined as 140; in data set [3], 84; in data set [4] it was 140. This molecule gave a fold change (FC) in data set [2] of 20. The molecule further came in with a Ki in data set [5] of 2.6 µM. Further, the inhibition result in data set [6] and in data set [7] was “inactive” each time.
Take `CCCC(=O)Oc1ccc(NC(=O)CCC(=O)N[C@@H](Cc2ccc(O)cc2)C(=O)N[C@@H](Cc2c[nH]c3ccccc23)C(N)=O)cc1`: the result in [8], in data set [9], in data set [10] and in data set [11] was Active.
In the case of `CCCC(=O)Oc1ccc(NC(=O)CCC(=O)N[C@@H](Cc2ccccc2)C(=O)N[C@@H](Cc2c[nH]c3ccccc23)C(N)=O)cc1`, the outcome in data set [8], in data set [9], in data set [10] and in [11] was Active.
For the molecule `NC(=O)[C@H](Cc1ccccc1)NC(=O)[C@H](Cc1ccccc1)NC(=O)CCC(=O)Nc1ccc(O)cc1`, the Ratio Ki in data set [1], in [3] and in data set [4] was above 160 in each case. Besides, in data set [5], the affinity, expressed as Ki, was 37 µM.
For the molecule `CCCC(=O)Oc1ccc(NC(=O)CCC(=O)N[C@@H](Cc2c[nH]c3ccccc23)C(=O)N[C@@H](Cc2c[nH]c3ccccc23)C(N)=O)cc1`, the outcome in [8], in [9], in data set [10] and in data set [11] was Active.
Turning to `CCCC(=O)Oc1ccc(NC(=O)CCC(=O)N[C@@H](Cc2ccc(O)cc2)C(=O)N[C@@H](Cc2ccccc2)C(N)=O)cc1`, the outcome in data set [8], in [9], in data set [10] and in data set [11] was Active.
Consider `CCCC(=O)Oc1ccc(NC(=O)CCC(=O)N[C@@H](Cc2ccc(O)cc2)C(=O)N[C@@H](Cc2ccc(O)cc2)C(N)=O)cc1`, for which the result in data set [8], in data set [9], in data set [10] and in [11] was Active.
On to `CCCC(=O)Oc1ccc(NC(=O)CCC(=O)N[C@@H](Cc2c[nH]c3ccccc23)C(=O)N[C@@H](Cc2ccccc2)C(N)=O)cc1`, for which the outcome in data set [8], in [9], in data set [10] and in data set [11] was Active.
As for `CCCCCCCCCCOc1ccc(NC(=O)CCC(=O)N[C@@H](Cc2ccccc2)C(=O)N[C@@H](Cc2ccccc2)C(N)=O)cc1`, the solubility result in [12] was “Insoluble”.
The term Km denotes the concentration of substrate that gives half-maximal velocity. With `CCCC(=O)Oc1ccc(NC(=O)CCC(=O)N[C@@H](Cc2ccccc2)C(=O)N[C@@H](Cc2ccccc2)C(N)=O)cc1`, the Ratio Ki in [1], in data set [3] and in [4] was above 160 each time. Further, the inhibition entry in data set [13], in data set [6] and in [7] was “inactive” throughout. For the same molecule, the fold change (FC) in [2] worked out at 20. The result in data set [8], in data set [9], in [10] and in [11] was Active. Besides, the Km in [8] was determined as 180 µM. The molecule further had an inhibition constant (Ki) in [5] of 37 µM.
As for `CCCC(=O)Oc1ccc(NC(=O)CCC(=O)N[C@@H](Cc2ccccc2)C(=O)N[C@@H](Cc2ccc(O)cc2)C(N)=O)cc1`, the result in data set [8], in [9], in [10] and in data set [11] was Active.
`CCCCOc1ccc(NC(=O)CCC(=O)N[C@@H](Cc2ccccc2)C(=O)N[C@@H](Cc2ccc(O)cc2)C(N)=O)cc1`: the solubility result in data set [12] is given as “soluble”. For the same molecule, the inhibition result in data set [6] and in data set [7] was “inactive” throughout. In addition, the inhibition constant Ki was found to be 160 µM in data set [14] and 550 µM in [15].
`CCCC(=O)Oc1ccc([N+](=O)[O-])cc1`: the Km in data set [8] was determined as 3500 µM.
Regarding `CCCCOc1ccc(NC(=O)CCC(=O)N[C@@H](Cc2ccc(O)cc2)C(=O)N[C@@H](Cc2ccccc2)C(N)=O)cc1`, the inhibition entry in data set [6] and in [7] was “inactive” throughout. Besides, the figures for the Ki in [14] and in [15] were 71 µM and 170 µM, respectively.
With `CCCC(=O)Oc1ccc(NC(=O)CCC(=O)N[C@@H](Cc2c[nH]c3ccccc23)C(=O)N[C@@H](Cc2ccc(O)cc2)C(N)=O)cc1`, the result in data set [8], in [9], in [10] and in data set [11] was Active.
`CCCCCCCOc1ccc(NC(=O)CCC(=O)N[C@@H](Cc2ccccc2)C(=O)N[C@@H](Cc2ccccc2)C(N)=O)cc1`: the solubility result in data set [12] is “Insoluble”. For the same molecule, the results for the Ki in data set [5] and in data set [14] were 0.37 µM and 39 µM, respectively.
